According to the NIST ThermoML archive (doi:10.1016/j.fluid.2011.07.018):
Numbers after ± are expanded uncertainties.

Assay: xn = mol fraction of the nth substance listed
Conditions: 298.15 K, 101 kPa, Liquid; for speed of sound: Linear variable-path acoustic interferometer; for mass density: Vibrating tube method

## Clc1ccc(Cl)c(Cl)c1 [1,2,4-trichlorobenzene] + C1CCOC1
x2 = 0
  speed of sound: 1272 ± 3 m/s
  mass density: 1447.66 ± 1.9 kg/m3
x2 = 0.0358
  speed of sound: 1303 ± 3 m/s
  mass density: 1431.9 ± 1.9 kg/m3
x2 = 0.1451
  speed of sound: 1326 ± 3 m/s
  mass density: 1382.41 ± 1.8 kg/m3
x2 = 0.2456
  speed of sound: 1346 ± 3 m/s
  mass density: 1334.05 ± 1.7 kg/m3
x2 = 0.3483
  speed of sound: 1355 ± 3 m/s
  mass density: 1282.95 ± 1.6 kg/m3
x2 = 0.4617
  speed of sound: 1352 ± 3 m/s
  mass density: 1224.12 ± 1.4 kg/m3
x2 = 0.6012
  speed of sound: 1339 ± 3 m/s
  mass density: 1147.15 ± 1.3 kg/m3
x2 = 0.7076
  speed of sound: 1327 ± 3 m/s
  mass density: 1083.62 ± 1.2 kg/m3
x2 = 0.7639
  speed of sound: 1320 ± 3 m/s
  mass density: 1048.78 ± 1.1 kg/m3
x2 = 0.8162
  speed of sound: 1313 ± 3 m/s
  mass density: 1014.57 ± 1.1 kg/m3
x2 = 0.8743
  speed of sound: 1305 ± 3 m/s
  mass density: 975.21 ± 1.1 kg/m3
x2 = 0.9351
  speed of sound: 1300 ± 3 m/s
  mass density: 931.35 ± 1.1 kg/m3
x2 = 0.9642
  speed of sound: 1298 ± 3 m/s
  mass density: 909.82 ± 1.1 kg/m3

## Clc1ccccc1Cl [1,2-dichlorobenzene] + C1CCOC1
x2 = 0
  speed of sound: 1269 ± 3 m/s
  mass density: 1300.35 ± 1.5 kg/m3
x2 = 0.0327
  speed of sound: 1274 ± 3 m/s
  mass density: 1288.55 ± 1.5 kg/m3
x2 = 0.155
  speed of sound: 1290 ± 3 m/s
  mass density: 1244.23 ± 1.4 kg/m3
x2 = 0.3046
  speed of sound: 1305 ± 3 m/s
  mass density: 1189.35 ± 1.3 kg/m3
x2 = 0.4457
  speed of sound: 1307 ± 3 m/s
  mass density: 1135.03 ± 1.2 kg/m3
x2 = 0.5709
  speed of sound: 1304 ± 3 m/s
  mass density: 1084.3 ± 1.1 kg/m3
x2 = 0.6161
  speed of sound: 1299 ± 3 m/s
  mass density: 1065.67 ± 1.1 kg/m3
x2 = 0.6885
  speed of sound: 1295 ± 3 m/s
  mass density: 1034.31 ± 1 kg/m3
x2 = 0.7973
  speed of sound: 1283 ± 3 m/s
  mass density: 984.99 ± 0.94 kg/m3
x2 = 0.8425
  speed of sound: 1278 ± 3 m/s
  mass density: 963.65 ± 0.93 kg/m3
x2 = 0.8852
  speed of sound: 1274 ± 3 m/s
  mass density: 942.63 ± 0.92 kg/m3
x2 = 0.9451
  speed of sound: 1272 ± 3 m/s
  mass density: 911.72 ± 0.91 kg/m3

## Clc1cccc(Cl)c1 [1,3-dichlorobenzene] + C1CCOC1
x2 = 0
  speed of sound: 1257 ± 2 m/s
  mass density: 1282.82 ± 1.5 kg/m3
x2 = 0.0332
  speed of sound: 1259 ± 3 m/s
  mass density: 1272.22 ± 1.5 kg/m3
x2 = 0.1432
  speed of sound: 1272 ± 3 m/s
  mass density: 1234.54 ± 1.4 kg/m3
x2 = 0.272
  speed of sound: 1276 ± 3 m/s
  mass density: 1189.62 ± 1.3 kg/m3
x2 = 0.3809
  speed of sound: 1277 ± 3 m/s
  mass density: 1150.84 ± 1.2 kg/m3
x2 = 0.5198
  speed of sound: 1276 ± 3 m/s
  mass density: 1099.15 ± 1.1 kg/m3
x2 = 0.6244
  speed of sound: 1275 ± 3 m/s
  mass density: 1057.78 ± 1 kg/m3
x2 = 0.696
  speed of sound: 1274 ± 3 m/s
  mass density: 1027.92 ± 1 kg/m3
x2 = 0.8044
  speed of sound: 1270 ± 3 m/s
  mass density: 980.28 ± 0.93 kg/m3
x2 = 0.845
  speed of sound: 1265 ± 3 m/s
  mass density: 961.47 ± 0.93 kg/m3
x2 = 0.8852
  speed of sound: 1265 ± 3 m/s
  mass density: 941.79 ± 0.92 kg/m3
x2 = 0.942
  speed of sound: 1266 ± 3 m/s
  mass density: 912.92 ± 0.9 kg/m3

## Cc1ccccc1Cl [2-chlorotoluene] + C1CCOC1
x2 = 0
  speed of sound: 1295 ± 3 m/s
  mass density: 1077.63 ± 1 kg/m3
x2 = 0.1234
  speed of sound: 1324 ± 3 m/s
  mass density: 1057.75 ± 0.97 kg/m3
x2 = 0.264
  speed of sound: 1345 ± 3 m/s
  mass density: 1034.49 ± 0.93 kg/m3
x2 = 0.3444
  speed of sound: 1347 ± 3 m/s
  mass density: 1020.53 ± 0.9 kg/m3
x2 = 0.4669
  speed of sound: 1348 ± 3 m/s
  mass density: 998.27 ± 0.86 kg/m3
x2 = 0.5809
  speed of sound: 1343 ± 3 m/s
  mass density: 976.32 ± 0.84 kg/m3
x2 = 0.7119
  speed of sound: 1331 ± 3 m/s
  mass density: 949.73 ± 0.81 kg/m3
x2 = 0.7706
  speed of sound: 1326 ± 3 m/s
  mass density: 937.14 ± 0.8 kg/m3
x2 = 0.8264
  speed of sound: 1318 ± 3 m/s
  mass density: 924.69 ± 0.79 kg/m3
x2 = 0.8858
  speed of sound: 1310 ± 3 m/s
  mass density: 910.9 ± 0.78 kg/m3
x2 = 0.9564
  speed of sound: 1298 ± 3 m/s
  mass density: 893.59 ± 0.76 kg/m3
